Measured values: patent US20110250133A1, “GASTRIN […] PEPTIDE COMPOUNDS” (priority 2003, published 2011)

What was measured:
[1] = tested on: BT-474 human breast cancer cells; assay: Effect of drug treatment on GRP receptor binding (177Lu-AMBA) in BT-474 cells; type: cell-based; conditions: for change in 177Lu-AMBA binding (GRP receptor specific signal per cell) vs untreated controls, BT-474: Table 25, range 0.001-0.1 μM
Description: BT-474 breast cancer cells (human primary invasive ductal carcinoma; ER+, PR+, amplified HER2/neu+) were obtained from the American Type Culture Collection. The growth medium for BT-474 cells is Hybri-care Medium (Cat No: 46X, ATCC) supplemented with 10% heat inactivated FBS (Hyclone, SH30070.03), 0.2% NaHCO3, and antibiotic/antimycotic “PSF-1×” (GibcoBRL, 15240-062) for a final concentration of penicillin-streptomycin (1×, 100 units/mL), and fungizone (0.25 μg/mL). […] Cells for binding experiments were plated on Day 0 at 5.6×10^4 cells/cm^2 in 96-well white/clear bottom microtiter plates (Falcon Optilux-I), or 96 well black/clear collagen I cellware plates (Beckton Dickinson Biocoat).
(§1) RPMI 1640 supplemented with 20 mM HEPES, 0.1% BSA (w/v), 0.5 mM PMSF (AEBSF), bacitracin (50 mg/500 ml), pH 7.4.
(§2) Incubations were stopped by the addition of 200 μL of ice-cold binding buffer. Plates were washed three more times with binding buffer, 140 μL of scintillation fluid was added to each well, the plates were sealed and analyzed on a Microβ plate reader (Microbeta Trilux, Perkin-Elmer).
Treatment: BT-474 cells were plated on Day 0 and treated on Days 1 and 2 (DT1, DT2).

[2] = tested on: T47D human breast cancer cells; assay: Effect of drug treatment on GRP receptor binding (177Lu-AMBA) in T47D cells; type: cell-based; conditions: for change in 177Lu-AMBA binding (GRP receptor specific signal per cell) vs untreated controls, T47D: Table 25, range 0.001-0.1 μM
Description: T-47D breast cancer cells (human metastatic mammary gland ductal adenocarcinoma isolated from pleural effusion, ER+, PR+) were obtained from the American Type Culture Collection.

[3] = tested on: PC-3 prostate cancer cells; assay: Effect of drug treatment on GRP receptor binding (177Lu-AMBA) in PC-3 cells; type: cell-based, human; conditions: for change in 177Lu-AMBA binding (GRP receptor specific signal per cell) vs untreated controls, PC-3: Table 25, range 0.001-0.1 μM
Description: as §1, §2
PC-3 (human prostate adenocarcinoma, bone metastasis, AR-, ER) were obtained from the American Type Culture Collection. The growth medium for PC-3 cells is RPMI 1640 (10-041-CM, Mediatech, Inc), supplemented with 10% heat inactivated FBS (Hyclone, SH30070.03) and PSF-1× (as in Example LXVI). The binding buffer, lapatinib solutions, treatment method and cell binding assay is the same as in Example LXVI.

[4] = target: T1, GRP-R (Homo sapiens, UniProt P30550); assay: Competition studies of modified BBN analogs with 125I-BBN for GRP-R in PC3 cells (Example LXI); type: binding
T1 construct: host or cells: PC3 (PC-3) human prostate cancer cells, intact adherent cells
T1 sequence (P30550 whole entry): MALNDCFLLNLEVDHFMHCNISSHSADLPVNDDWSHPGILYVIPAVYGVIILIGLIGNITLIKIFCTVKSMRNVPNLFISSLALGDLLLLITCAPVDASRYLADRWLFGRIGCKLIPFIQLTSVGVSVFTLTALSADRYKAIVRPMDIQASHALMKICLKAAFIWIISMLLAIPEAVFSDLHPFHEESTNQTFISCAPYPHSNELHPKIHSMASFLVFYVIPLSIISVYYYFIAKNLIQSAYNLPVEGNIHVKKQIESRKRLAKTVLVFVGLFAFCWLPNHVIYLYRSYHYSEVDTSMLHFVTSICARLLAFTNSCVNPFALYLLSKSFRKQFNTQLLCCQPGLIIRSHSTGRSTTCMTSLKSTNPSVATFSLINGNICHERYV
Description: PC3 cell lines were obtained from ATCC(CRL-1435) and cultured in RPMI 1640 (ATCC) supplemented with 2 mM L-glutamine, 1.5 g/L Sodium bicarbonate, 10 mM HEPES and 10% FBS. […] PC3 cells for the assays were plated at a concentration of 2.0×10^4 cells/well in a 96-well white/clear bottom plates (Falcon Optilux-I). Plates were used for the assays on day 2 of the post-plating.
^125I-BBN (Cat # NEX258) was obtained from PerkinElmer Life Sciences.
All compounds tested were dissolved in binding buffer and appropriate dilutions were also done in binding buffer. PC3 cells for assay were seeded at a concentration of 2.0×10^4/well either in 96-well black/clear collagen I cellware plates (Beckton Dickinson Biocoat). Plates were used for binding studies on day 2 post-plating. The plates were checked for confluency (>90% confluent) prior to assay. […] The studies were conducted with an assay volume of 75 μL per well. Triplicate wells were used for each data point. After the addition of the appropriate solutions, plates were incubated for 1 hour at 4° C. Incubation was ended by the addition of 200 μL of ice-cold incubation buffer. Plates were washed 5 times and blotted dry. Radioactivity was detected using either a LKB CompuGamma counter or a microplate scintillation counter.

[5] = target: T2, NMB-R (Rattus norvegicus, UniProt P24053); assay: Competition with 125I-NMB for NMB-R in C6 cells (linker specificity); type: binding, rodent; conditions: for receptor subtype preference (GRP-R vs NMB-R): from IC50 with 125I-NMB (C6) and 125I-BBN (PC3), cut off 10x the IC50 of [Tyr4]-BBN; for GRP-R and NMB-R (binds both) / GRP-R (GRP-R preferring): yes / —, cut off 10x the IC50 of [Tyr4]-BBN with 125I-NMB on C6 cells;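 as to all read-outs here: test cells: rodent glioblastoma C6 line carrying NMB-R, human prostate cancer PC3 line carrying GRP-R, affinity fitted by one-site competition nonlinear regression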
T2 construct: C6, an NMB-R expressing rodent glioblastoma cell line; host or cells: C6 glioblastoma cells, intact adherent cells
T2 sequence (P24053 1-390): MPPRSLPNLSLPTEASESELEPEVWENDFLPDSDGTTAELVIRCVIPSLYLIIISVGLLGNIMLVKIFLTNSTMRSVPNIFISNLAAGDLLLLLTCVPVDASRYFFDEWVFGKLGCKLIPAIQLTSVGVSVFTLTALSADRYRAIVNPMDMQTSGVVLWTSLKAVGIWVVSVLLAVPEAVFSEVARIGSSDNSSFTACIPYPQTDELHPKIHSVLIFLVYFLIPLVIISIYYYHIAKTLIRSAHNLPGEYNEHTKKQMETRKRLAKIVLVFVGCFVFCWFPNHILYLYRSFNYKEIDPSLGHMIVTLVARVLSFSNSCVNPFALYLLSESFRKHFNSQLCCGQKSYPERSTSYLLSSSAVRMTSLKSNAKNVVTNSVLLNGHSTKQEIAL
Description: Two cell lines, C6, an NMB-R expressing rodent glioblastoma cell line and PC3, a GRP-R expressing human prostate cancer cell line, were used in this assay. The affinity of various unlabeled compounds for each receptor subtype (NMB-R and GRP-R) was determined indirectly by measuring its ability to compete with the binding of ^125I-NMB or ^125I-BBN to its corresponding receptors in C6 and PC3 cells.
Cells for the assays were plated at a concentration of 9.6×10^4/well in 48 well poly-lysine coated plates (Beckton Dickinson Biocoat). PC3 were obtained from ATCC(CRL-1435) and cultured in RPMI 1640 (ATCC) supplemented with 2 mM L-glutamine, 1.5 g/L Sodium bicarbonate, 10 mM HEPES and 10% FBS. […] PC3 cells for the assays were plated at a concentration of 2.0×10^4 cells/well in 96-well white/clear bottom plates (Falcon Optilux-I). Plates were used for the assays on day 2 of the post-plating.
RPMI 1640 (ATCC) containing 25 mM HEPES, 0.2% BSA fraction V, 1.0 mM AEBSF (CAS # 3087-99-7) and 0.1% Bacitracin (CAS # 1405-87-4), pH 7.4. Custom made ^125I-[Tyr^0]NMB, >2.0 Ci/μmole (Amersham Life Science) [^125I-NMB] and commercially available ^125I-[Tyr^4]BBN, >2.0 Ci/μmole (Perkin Elmer Life Science) [^125I-BBN] were used as radioligands.
Using a 48-well plate assay system (for C6 study) competition experiments were performed using ^125I-NMB. […] Selection of compounds for the assay was based on linker subtype.
The binding parameters obtained from the studies were analyzed using a one-site competition non-linear regression analysis with GraphPad Prism. The relative affinity of various compounds for NMB-R in C6 cells were compared with those obtained using commercially available [Tyr^4]-BBN and [Tyr^0]-NMB. To distinguish the GRP-R preferring compounds from NMB-R plus GRP-R preferring compounds, IC50 values obtained for each compound were compared with those obtained from [Tyr^4-BBN with ^125I-NMB on C6 cells.

[6] = tested on: PC3 cells; assay: Internalization and efflux assay in PC3 cells; type: cell-based, human; conditions: 125I-BBN or Lu-177 complexes
Description: These studies were conducted in a 96-well plate. […] Incubations were stopped by the addition of 200 μl of ice-cold binding buffer. Plates were washed twice with binding buffer. To remove surface-bound radioligand, the cells were incubated with 0.2M acetic acid (in saline), pH 2.8 for 2 min. Plates were centrifuged and the acid wash media were collected to determine the amount of radioactivity which was not internalized. The cells were collected to determine the amount of internalized ^125I-BBN, and all samples were analyzed in the gamma counter. Data for the internalization assay was normalized by comparing counts obtained at the various time points with the counts obtained at the final time point (T=40 min).
For the efflux studies, after loading the PC3 cells with ^125I-BBN or radiolabeled compounds of the invention for 40 min at 37° C., the unbound material was filtered, and the % of internalization was determined as above. The cells were then resuspended in binding buffer at 37° C. for up to 3 h.

CC/C(=C(\c1ccc(O)cc1)c1ccc(OCCN(C)C)cc1)c1ccccc1 [Compounds 4-OH-Tamoxifen]
change in 177Lu-AMBA binding (GRP receptor specific signal per cell) vs untreated controls, BT-474 [1]: −73% | change in 177Lu-AMBA binding (GRP receptor specific signal per cell) vs untreated controls, T47D [2]: −35% | change in 177Lu-AMBA binding (GRP receptor specific signal per cell) vs untreated controls, PC-3 [3]: 0%

C[C@]12CC[C@@H]3c4ccc(O)cc4CC[C@H]3[C@@H]1CC[C@@H]2O [β2-estradiol]
increase in 177Lu-AMBA binding (GRP receptor specific signal per cell) ([1]; BT-474, relative to untreated control, drug 0.1-1.0 μM (β2-estradiol 1 nM)): 47% | change in 177Lu-AMBA binding (GRP receptor specific signal per cell) vs untreated controls, BT-474 [1]: 47% | change in GRP receptor specific signal per cell (177Lu-AMBA binding) ([2]; T-47D): did not change | change in 177Lu-AMBA binding (GRP receptor specific signal per cell) vs untreated controls, T47D [2]: 0% | change in GRP receptor specific signal per cell (177Lu-AMBA binding) ([3]; PC-3, drug 0.1-1.0 μM (4-OH Tamoxifen 0.001-0.1 μM)): no change | change in 177Lu-AMBA binding (GRP receptor specific signal per cell) vs untreated controls, PC-3 [3]: 0%

DO3A-Gly-Abz4-Gln-Trp-Ala-Val-Gly-His-Phe-Leu-NH2 [Compound L300]
competition at the GRP-R [4]: high activity at the GRP-R

DO3A-monoamide-Abu4-QWAVGHLM-NH2
receptor subtype preference (GRP-R vs NMB-R) [5]: dual affinity for both GRP-R and NMB-R | GRP-R and NMB-R (binds both) [5]: yes

DO3A-monoamide-Aoc-QWAVGHL-Nle-NH2
receptor subtype preference (GRP-R vs NMB-R) [5]: dual affinity for both GRP-R and NMB-R | GRP-R and NMB-R (binds both) [5]: Yes

DO3A-monoamide-Aoc-QWAVGHLM-NH2
Internalisation (40 minutes) ([6]; 40 min at 37° C.): 89% | Efflux (2 h) ([6]; 2 h at 37° C. after 40 min loading): 28%

DO3A-monoamide-Apa3-QWAVGHLM-NH2
receptor subtype preference (GRP-R vs NMB-R) [5]: dual affinity for both GRP-R and NMB-R | GRP-R and NMB-R (binds both) [5]: yes

DO3A-monoamide-Cha-Cha-QWAVGHLM-NH2
receptor subtype preference (GRP-R vs NMB-R) [5]: selective affinity towards GRP-R | GRP-R (GRP-R preferring) [5]: yes

DO3A-monoamide-Nal1-Bip-QWAVGHLM-NH2
receptor subtype preference (GRP-R vs NMB-R) [5]: selective affinity towards GRP-R | GRP-R (GRP-R preferring) [5]: yes

DO3A-monoamide-Nal1-Bpa4-QWAVGHLM-NH2
receptor subtype preference (GRP-R vs NMB-R) [5]: selective affinity towards GRP-R | GRP-R (GRP-R preferring) [5]: yes

Gln-Trp-Ala-Val-Gly-His-Leu-Met-NH2 [BBN7-14]
receptor subtype preference (GRP-R vs NMB-R) [5]: did not show any preference | receptor preference in words (GRP-R / GRP-R and NMB-R) ([5]; wrapped cell: 'No selective preference' or 'preference for NMB-R'): No selective

N-[4-[[[[4,7,10-Tris(carboxymethyl)-1,4,7,10-tetraazacyclododec-1-yl]acetyl]glycyl]amino]-3-methoxybenzoyl]-L-glutaminyl-L-tryptophyl-1-alanyl-L-valyl-glycyl-L-histidyl-L-leucyl-L-methioninamide [Compound L240]
receptor subtype preference (GRP-R vs NMB-R) [5]: selective affinity to GRP-R
